What all share (assay type): biochemical
For assay [1], the target named is PKC theta kinase (Homo sapiens, UniProt Q04759). Nature of the assay: PKC theta coupled-enzyme kinase assay (NADH consumption). The conditions noted are these: 240 μM ATP, 18 nM PKC theta, 30° C. On the procedure: An assay buffer solution was prepared which consisted of 100 mM HEPES (pH 7.5), 10 mM MgCl2, 25 mM NaCl, 0.1 mM EDTA and 0.01% Brij. An enzyme buffer containing reagents to final assay concentrations of 0.00001% Triton X-100, 200 μg/mL Phosphatidylserine, 20 μg/mL Diacylglycerol, 360 μM NADH, 3 mM phosphoenolpyruvate, 70 μg/mL pyruvate kinase, 24 μg/mL lactate dehydrogenase, 2 mM DTT, 100 μM substrate peptide (ERMRPRKRQGSVRRRV SEQ ID NO. 1) and 18 nM PKC theta kinase was prepared in assay buffer. To 60 μL of this enzyme buffer, in a 384 well plate, was added 2 μL of VRT stock solution in DMSO. The mixture was allowed to equilibrate for 10 mins at 30° C. The enzyme reaction was initiated by the addition of 5 μL stock ATP solution prepared in assay buffer to a final assay concentration of 240 μM. Initial rate data was determined from the rate of change of absorbance at 340 nm (corresponding to stoichiometric consumption of NADH) using a Molecular Devices Spectramax plate reader (Sunnyvale, Calif.) over 15 mins at 30° C. For each Ki determination 12 data points covering the VRT concentration range of 0-20 μM were obtained in duplicate (DMSO stocks were prepared from an initial 10 mM VRT stock with subsequent 1:2 serial dilutions). Ki values were calculated from initial rate data by non-linear regression using the Prism software package (Prism 4.0a, Graphpad Software, San Diego, Calif.).
PKC theta kinase, sequence (Q04759 whole entry): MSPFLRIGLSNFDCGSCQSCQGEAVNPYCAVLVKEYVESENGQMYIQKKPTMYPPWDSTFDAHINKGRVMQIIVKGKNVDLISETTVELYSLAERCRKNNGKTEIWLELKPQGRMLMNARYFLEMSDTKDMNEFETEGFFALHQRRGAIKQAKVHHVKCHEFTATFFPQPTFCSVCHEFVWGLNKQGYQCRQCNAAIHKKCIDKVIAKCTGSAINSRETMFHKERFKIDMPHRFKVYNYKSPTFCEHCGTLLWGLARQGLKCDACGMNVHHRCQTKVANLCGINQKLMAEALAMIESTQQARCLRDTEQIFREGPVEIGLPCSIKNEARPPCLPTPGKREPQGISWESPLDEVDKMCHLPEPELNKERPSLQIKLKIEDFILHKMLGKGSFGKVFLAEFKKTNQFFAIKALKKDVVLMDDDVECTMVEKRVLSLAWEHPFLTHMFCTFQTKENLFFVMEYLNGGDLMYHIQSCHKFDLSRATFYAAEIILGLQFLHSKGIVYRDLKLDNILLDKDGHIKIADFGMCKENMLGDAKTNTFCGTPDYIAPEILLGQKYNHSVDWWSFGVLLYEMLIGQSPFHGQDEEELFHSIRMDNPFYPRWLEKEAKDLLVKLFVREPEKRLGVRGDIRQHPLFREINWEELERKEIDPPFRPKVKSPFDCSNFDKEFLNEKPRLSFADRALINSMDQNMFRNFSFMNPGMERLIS

The target of assay [2] is PKC alpha kinase (Homo sapiens, UniProt P17252). In words: PKC alpha coupled-enzyme kinase assay (NADH consumption). Particulars: 130 μM ATP, 4.5 nM PKC alpha, 30° C. On the procedure: An assay buffer solution was prepared which consisted of 100 mM HEPES (pH 7.5), 10 mM MgCl2, 25 mM NaCl, 0.1 mM EDTA, 100 μM CaCl2 and 0.01% Brij. An enzyme buffer containing reagents to final assay concentrations of 0.002% Triton X-100, 100 μg/mL Phosphatidylserine, 20 μg/mL Diacylglycerol, 360 μM NADH, 3 mM phosphoenolpyruvate, 70 μg/mL pyruvate kinase, 24 μg/mL lactate dehydrogenase, 2 mM DTT, 150 μM substrate peptide (RRRRRKGSFKRKA SEQ ID NO. 1) and 4.5 nM PKC alpha kinase was prepared in assay buffer. To 16 μL of this enzyme buffer, in a 384 well plate, was added 1 μL of VRT stock solution in DMSO. The mixture was allowed to equilibrate for 10 mins at 30° C. The enzyme reaction was initiated by the addition of 16 μL stock ATP solution prepared in assay buffer to a final assay concentration of 130 μM. Initial rate data was determined from the rate of change of absorbance at 340 nm (corresponding to stoichiometric consumption of NADH) using a Molecular Devices Spectramax plate reader (Sunnyvale, Calif.) over 15 mins at 30° C. […] Ki values were calculated from initial rate data by non-linear regression using the Prism software package (Prism 4.0a, Graphpad Software, San Diego, Calif.).

Assay [3] addresses PKC delta kinase (Homo sapiens, UniProt Q05655). Nature of the assay: PKC delta coupled-enzyme kinase assay (NADH consumption). The conditions noted are these: 150 μM ATP, 46 nM PKC delta, 30° C. On the procedure: An assay buffer solution was prepared which consisted of 100 mM HEPES (pH 7.5), 10 mM MgCl2, 25 mM NaCl, 0.1 mM EDTA and 0.01% Brij. An enzyme buffer containing reagents to final assay concentrations of 0.002% Triton X-100, 200 μg/mL Phosphatidylserine, 20 μg/mL Diacylglycerol, 360 μM NADH, 3 mM phosphoenolpyruvate, 70 μg/mL pyruvate kinase, 24 μg/mL lactate dehydrogenase, 2 mM DTT, 150 μM substrate peptide (ERMRPRKRQGSVRRRV SEQ ID NO. 2) and 46 nM PKC delta kinase was prepared in assay buffer. To 16 μL of this enzyme buffer, in a 384 well plate, was added 1 μL of VRT stock solution in DMSO. The mixture was allowed to equilibrate for 10 mins at 30° C. The enzyme reaction was initiated by the addition of 16 μL stock ATP solution prepared in assay buffer to a final assay concentration of 150 μM. Initial rate data was determined from the rate of change of absorbance at 340 nm (corresponding to stoichiometric consumption of NADH) using a Molecular Devices Spectramax plate reader (Sunnyvale, Calif.) over 15 mins at 30° C. For each Ki determination 12 data points covering the VRT concentration range of 0-20 μM were obtained in duplicate (DMSO stocks were prepared from an initial 10 mM VRT stock with subsequent 1:2 serial dilutions). Ki values were calculated from initial rate data by non-linear regression using the Prism software package (Prism 4.0a, Graphpad Software, San Diego, Calif.).

A value given as a limit tells only on which side of the number the result lay.

Broadly, the Ki is the dissociation constant of the complex between target and ligand, obtained from inhibition or displacement.

PKC delta kinase, sequence (Q05655 whole entry): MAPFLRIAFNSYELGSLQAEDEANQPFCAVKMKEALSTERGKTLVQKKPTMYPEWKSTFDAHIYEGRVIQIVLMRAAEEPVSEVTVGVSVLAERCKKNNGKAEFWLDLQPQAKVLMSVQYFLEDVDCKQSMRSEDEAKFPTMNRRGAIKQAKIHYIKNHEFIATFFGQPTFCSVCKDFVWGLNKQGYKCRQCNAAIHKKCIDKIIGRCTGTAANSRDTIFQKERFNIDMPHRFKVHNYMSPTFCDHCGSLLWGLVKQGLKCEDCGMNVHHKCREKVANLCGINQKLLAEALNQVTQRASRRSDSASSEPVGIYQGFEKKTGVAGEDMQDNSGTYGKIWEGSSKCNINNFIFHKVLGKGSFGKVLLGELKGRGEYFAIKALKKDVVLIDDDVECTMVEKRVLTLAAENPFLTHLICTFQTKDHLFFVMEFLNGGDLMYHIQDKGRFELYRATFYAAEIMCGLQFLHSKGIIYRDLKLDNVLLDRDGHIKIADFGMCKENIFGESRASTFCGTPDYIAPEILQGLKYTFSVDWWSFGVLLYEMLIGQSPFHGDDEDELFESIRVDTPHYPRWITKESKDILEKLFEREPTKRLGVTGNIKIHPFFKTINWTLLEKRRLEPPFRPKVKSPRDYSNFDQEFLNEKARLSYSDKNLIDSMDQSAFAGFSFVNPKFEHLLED

As for `CCOc1ncnc2[nH]nc(-c3cccc(N4CCNC(CC(C)C)C4)n3)c12` (stereo not drawn) [Compound 1, 4-ethoxy-3-(6-(3-isobutylpiperazin-1-yl)pyridin-2-yl)-1H-pyrazolo[3,4-d]pyrimidine], the figures for the Ki in assay [1], in assay [2] and in assay [3] were < 2800 nM, > 1250 nM and > 1250 nM, respectively.
For the molecule `CC(C)[C@@](C)(O)[C@@H]1CN(c2nc(-c3n[nH]c4ncncc34)c(F)cc2F)CCN1` [Compound 2, (R)-2-((S)-4-(3,5-difluoro-6-(1H-pyrazolo[3,4-d]pyrimidin-3-yl)pyridin-2-yl)piperazin-2-yl)-3-methylbutan-2-ol], the values for the Ki in assay [1], in assay [2] and in assay [3] were < 1 nM, < 2800 nM and < 500 nM, respectively.

Source of the values: patent publication US8809335B2, “Pyrazolopyrimidine kinase inhibitors” (Vertex Pharmaceuticals Incorporated, priority 2010, dated 2014).
